Experimental data: ChEMBL document CHEMBL2074195, “The role of intestinal P-glycoprotein in the interaction of digoxin and rifampin” (J Clin Invest, 1999)

Target: ATP-dependent translocase ABCB1 (Homo sapiens, UniProt P08183)
Experiment: TP_TRANSPORTER: Western in vivo, quantitative immunohistochemistry
Format: functional, organism-based

Sequence of ATP-dependent translocase ABCB1 (P08183 whole entry): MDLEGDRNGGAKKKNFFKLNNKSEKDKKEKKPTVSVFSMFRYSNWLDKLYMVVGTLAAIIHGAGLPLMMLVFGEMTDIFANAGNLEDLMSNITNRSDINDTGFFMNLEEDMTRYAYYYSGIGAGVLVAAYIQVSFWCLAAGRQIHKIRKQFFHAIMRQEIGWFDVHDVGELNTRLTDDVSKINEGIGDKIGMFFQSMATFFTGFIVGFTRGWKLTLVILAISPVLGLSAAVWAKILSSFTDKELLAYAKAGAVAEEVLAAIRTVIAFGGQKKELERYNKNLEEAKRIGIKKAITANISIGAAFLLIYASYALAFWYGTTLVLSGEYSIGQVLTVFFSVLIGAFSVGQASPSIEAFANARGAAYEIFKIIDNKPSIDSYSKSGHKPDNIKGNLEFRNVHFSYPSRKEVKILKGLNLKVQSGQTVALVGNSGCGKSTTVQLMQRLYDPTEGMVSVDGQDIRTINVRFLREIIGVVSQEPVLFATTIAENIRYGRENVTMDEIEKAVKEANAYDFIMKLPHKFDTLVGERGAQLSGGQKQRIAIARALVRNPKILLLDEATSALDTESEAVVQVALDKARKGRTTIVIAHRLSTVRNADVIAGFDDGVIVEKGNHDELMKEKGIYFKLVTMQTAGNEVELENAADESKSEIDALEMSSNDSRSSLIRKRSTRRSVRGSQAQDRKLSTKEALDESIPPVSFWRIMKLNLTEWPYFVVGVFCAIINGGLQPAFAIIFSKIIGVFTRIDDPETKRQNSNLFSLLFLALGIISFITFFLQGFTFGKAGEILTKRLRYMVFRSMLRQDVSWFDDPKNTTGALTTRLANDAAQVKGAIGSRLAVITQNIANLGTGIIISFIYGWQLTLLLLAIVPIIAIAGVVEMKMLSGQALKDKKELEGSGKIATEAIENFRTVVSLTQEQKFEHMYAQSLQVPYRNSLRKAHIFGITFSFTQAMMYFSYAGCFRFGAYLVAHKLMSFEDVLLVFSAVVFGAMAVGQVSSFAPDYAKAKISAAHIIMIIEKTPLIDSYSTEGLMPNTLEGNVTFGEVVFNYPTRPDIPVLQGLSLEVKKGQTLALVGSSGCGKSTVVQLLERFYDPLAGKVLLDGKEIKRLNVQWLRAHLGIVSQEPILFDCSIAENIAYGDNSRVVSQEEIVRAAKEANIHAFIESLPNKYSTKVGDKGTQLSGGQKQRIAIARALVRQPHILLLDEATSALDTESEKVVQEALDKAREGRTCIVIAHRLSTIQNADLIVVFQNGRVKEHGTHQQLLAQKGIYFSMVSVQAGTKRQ

CO[C@H]1/C=C/O[C@@]2(C)Oc3c(C)c(O)c4c(O)c(c(/C=N/N5CCN(C)CC5)c(O)c4c3C2=O)NC(=O)/C(C)=C\C=C\[C@H](C)[C@H](O)[C@@H](C)[C@@H](O)[C@@H](C)[C@H](OC(C)=O)[C@@H]1C [RIFAMPIN]
Activity: inducer [+]
